Patent US20200131156A1, “ARYLSULFONYLPYROLECARBOXAMIDE DERIVATIVES AS Kv3 POTASSIUM CHANNEL ACTIVATORS” (H. Lundbeck A/S, priority 2018, published 2020)
Each block holds one compound with its values, some of them ahead of it.

Target: T1, hKv3.1b (Homo sapiens, UniProt P48547)
T1 construct: expressed in transfected cells
T1 sequence (P48547 1-585 isoform P48547-2): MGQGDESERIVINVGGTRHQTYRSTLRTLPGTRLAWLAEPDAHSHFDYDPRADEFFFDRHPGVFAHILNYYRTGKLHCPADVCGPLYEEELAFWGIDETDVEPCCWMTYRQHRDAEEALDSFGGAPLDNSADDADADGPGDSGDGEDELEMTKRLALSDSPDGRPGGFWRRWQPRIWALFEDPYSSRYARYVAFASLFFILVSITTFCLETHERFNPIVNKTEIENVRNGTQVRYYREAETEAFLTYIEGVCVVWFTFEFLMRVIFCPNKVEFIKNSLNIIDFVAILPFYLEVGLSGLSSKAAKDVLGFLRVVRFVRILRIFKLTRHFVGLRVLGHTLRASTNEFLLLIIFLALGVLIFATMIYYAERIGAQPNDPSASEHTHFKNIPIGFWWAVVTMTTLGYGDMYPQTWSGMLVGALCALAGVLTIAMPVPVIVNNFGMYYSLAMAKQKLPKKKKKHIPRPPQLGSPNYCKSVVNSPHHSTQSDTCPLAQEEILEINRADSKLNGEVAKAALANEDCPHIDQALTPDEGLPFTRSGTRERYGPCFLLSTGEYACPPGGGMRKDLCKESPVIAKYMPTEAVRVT
Experiment: Automated patch clamp (QPatch-16x) on HEK-293 cells stably expressing hKv3.1b
Format: cell-based
Details: for ECdelta5 mV: concentration needed to shift the activation threshold 5 mV; for Threshold Shift: maximum absolute hyperpolarizing shift of activation threshold at tested concentrations 0.37-30 μM
Method: HEK-293 cells stably expressing hKv3.1b were used for the experiments. Cells were cultured in DMEM medium supplemented with 10% Fetal Bovine Serum, 100 ug/mL Geneticidin and 100 u/mL Penicillin/Streptomycin (all from Gibco). Cells were grown to 80-90% confluency at 37° C. and 5% CO2. On the day of the experiment the cells were detached from the tissue culture flasks by Detachin, resuspended in serum free medium containing 25 mM HEPES and transferred to the cell hotel of the QPatch. The cells were used for experiments 0-5 hours after detachment.
Patch-clamp recordings were performed using the automated recording system QPatch-16x (Sophion Bioscience, Denmark). Cells were centrifuged, SFM removed and the cells were resuspended in extracellular buffer containing (in mM): 145 NaCl, 4 KCl, 1 MgCl2, 2 CaCl2, 10 HEPES and 10 glucose (added fresh on the day of experiment); pH 7.4 adjusted with NaOH, 305 mOsm adjusted with sucrose.
Single cell whole-cell recordings were carried out using an intracellular solution containing (in mM): 120 KCl, 32.25/10 KOH/EGTA, 5.374 CaCl2, 1.75 MgCl2, 10 HEPES, 4 Na2ATP (added fresh on the day), pH 7.2 adjusted with KOH, […] adjusted with sucrose. Cell membrane potentials were held at −80 mV and currents were evoked by voltage steps (200 ms duration) from −70 mV to +10 mV (in 10 mV increments). Vehicle (0.33% DMSO) or increasing concentration of compound (I) were applied and the voltage protocol was run 3 times (resulting in 3 min cpd incubation time). Five increasing concentrations of compound (I) were applied to each cell.
Leak subtraction protocol was applied at −33% of the sweep amplitude, and serial resistance values were constantly monitored.
Any cell where serial resistance exceeded 25 MOhm, membrane resistance less than 200 MOhm or current size at −10 mV less than 200 pA was eliminated from the subsequent analysis.
Data analysis was performed using Sophion's QPatch assay software in combination with Microsoft Excel™ (Redmond, Wash., USA). Current voltage relationships were plotted from the peak current at the individual voltage steps normalized to the vehicle addition at 10 mV. The voltage threshold for channel activation was defined as 5% activation of the peak current at 10 mV in presence of vehicle. The activity of the compounds was described as the ability to shift this current voltage relationship to more hyperpolarized potentials and is given as the maximum absolute shift possible at the tested concentrations (0.37, 1.11, 3.33, 10, 30 μM). Concentration response curves were plotted from the threshold shift at the individual concentrations and were fitted excel fit model 205 sigmoidal dose-response model (fit=A+((B−A)/1+((C/x)^D)))), where A is the minimum value, B the maximum value, C the EC50 value and D the slope of the curve. The concentration needed to shift the threshold 5 mV was readout from this curve (ECdelta5 mV).

Structure (SMILES): Cc1ccc(S(=O)(=O)n2ccc(C(=O)NCc3cscn3)c2)cc1 [Compound 49, 1-(4-methylbenzene-1-sulfonyl)-N-[(1,3-thiazol-4-yl)methyl]-1H-pyrrole-3-carboxamide]
ECdelta5 mV: 2100 nM | Threshold Shift: 13 mV

Structure (SMILES): COc1ccc(S(=O)(=O)n2ccc(C(=O)NCc3cnccn3)c2)cc1 [Compound 67, 1-(4-methoxybenzene-1-sulfonyl)-N-[(pyrazin-2-yl)methyl]-1H-pyrrole-3-carboxamide]
ECdelta5 mV: 2200 nM | Threshold Shift: 23 mV

Structure (SMILES): Cc1ccc(S(=O)(=O)n2ccc(C(=O)NCc3cnc(C)o3)c2)cc1 [Compound 38, N-[(2-methyloxazol-5-yl)methyl]-1-(p-tolylsulfonyl)pyrrole-3-carboxamide]
ECdelta5 mV: 4600 nM | Threshold Shift: 13 mV

Structure (SMILES): COc1ccc(S(=O)(=O)n2ccc(C(=O)NCc3ccn(C)n3)c2)cc1 [Compound 66, 1-(4-methoxybenzene-1-sulfonyl)-N-[(1-methyl-1H-pyrazol-3-yl)methyl]-1H-pyrrole-3-carboxamide]
ECdelta5 mV: 1400 nM | Threshold Shift: 18 mV

Structure (SMILES): Cc1ccc(S(=O)(=O)n2ccc(C(=O)NCc3ncc(C)s3)c2)cc1 [Compound 39, N-[(5-methylthiazol-2-yl)methyl]-1-(p-tolylsulfonyl)pyrrole-3-carboxamide]
ECdelta5 mV: 1600 nM | Threshold Shift: 17 mV

Structure (SMILES): Cc1cnc(CNC(=O)c2ccn(S(=O)(=O)c3ccc(F)cc3)c2)cn1 [Compound 6, 1-(4-fluorophenyl)sulfonyl-N-[(5-methylpyrazin-2-yl)methyl]pyrrole-3-carboxamide]
ECdelta5 mV: 2300 nM | Threshold Shift: 24 mV

Structure (SMILES): Cc1cnc(CNC(=O)c2ccn(S(=O)(=O)c3ccccc3)c2)cn1 [Compound 48, 1-(benzenesulfonyl)-N-[(5-methylpyrazin-2-yl)methyl]-1H-pyrrole-3-carboxamide]
ECdelta5 mV: 2300 nM | Threshold Shift: 18 mV

Structure (SMILES): Cc1ccc(S(=O)(=O)n2ccc(C(=O)NCc3cc(F)ccn3)c2)cc1 [Compound 12, N-[(4-fluoro-2-pyridyl)methyl]-1-(p-tolylsulfonyl) pyrrole-3-carboxamide]
ECdelta5 mV: 1700 nM | Threshold Shift: 16 mV

Structure (SMILES): Cc1cnc(CNC(=O)c2ccn(S(=O)(=O)c3cccc(F)c3)c2)cn1 [Compound 5, 1-(3-fluorophenyl)sulfonyl-N-[(5-methylpyrazin-2-yl)methyl]pyrrole-3-carboxamide]
ECdelta5 mV: 7800 nM | Threshold Shift: 10 mV

Structure (SMILES): Cc1ccc(S(=O)(=O)n2ccc(C(=O)NCc3cocn3)c2)cc1 [Compound 54, 1-(4-methylbenzene-1-sulfonyl)-N-[(1,3-oxazol-4-yl)methyl]-1H-pyrrole-3-carboxamide]
ECdelta5 mV: 2000 nM | Threshold Shift: 15 mV

Structure (SMILES): COc1ccc(S(=O)(=O)n2ccc(C(=O)NCc3ccc(C)cn3)c2)cc1 [Compound 70, 1-(4-methoxybenzene-1-sulfonyl)-N-[(5-methylpyridin-2-yl)methyl]-1H-pyrrole-3-carboxamide]
ECdelta5 mV: 1100 nM | Threshold Shift: 17 mV

Structure (SMILES): Cc1ccccc1S(=O)(=O)n1ccc(C(=O)NCc2ccn(C)n2)c1 [Compound 74, 1-(2-methylbenzene-1-sulfonyl)-N-[(1-methyl-1H-pyrazol-3-yl)methyl]-1H-pyrrole-3-carboxamide]
ECdelta5 mV: 2100 nM | Threshold Shift: 21 mV

Structure (SMILES): Cc1ccc(S(=O)(=O)n2ccc(C(=O)NCc3nccs3)c2)cc1 [Compound 51, 1-(4-methylbenzene-1-sulfonyl)-N-[(1,3-thiazol-2-yl)methyl]-1H-pyrrole-3-carboxamide]
ECdelta5 mV: 2400 nM | Threshold Shift: 14 mV

Structure (SMILES): Cc1cc(CNC(=O)c2ccn(S(=O)(=O)c3ccccc3C)c2)on1 [Compound 78, 1-(2-methylbenzene-1-sulfonyl)-N-[(3-methyl-1,2-oxazol-5-yl)methyl]-1H-pyrrole-3-carboxamide]
ECdelta5 mV: 1900 nM | Threshold Shift: 17 mV

Further lines, results first:

ECdelta5 mV: 1100 nM | Threshold Shift: 24 mV
Structure (SMILES): Cc1ccc(S(=O)(=O)n2ccc(C(=O)NCc3cnc(C)cn3)c2)c(F)c1 [Compound 95, 1-(2-fluoro-4-methyl-phenyl)sulfonyl-N-[(5-methylpyrazin-2-yl)methyl]pyrrole-3-carboxamide]

ECdelta5 mV: 1500 nM | Threshold Shift: 34 mV
Structure (SMILES): Cc1cnc(CNC(=O)c2ccn(S(=O)(=O)c3ccc(C(F)F)cc3)c2)cn1 [Compound 93, 1-[4-(difluoromethyl)benzene-1-sulfonyl]-N-[(5-methylpyrazin-2-yl)methyl]-1H-pyrrole-3-carboxamide]

ECdelta5 mV: 1200 nM | Threshold Shift: 24 mV
Structure (SMILES): COc1ccc(S(=O)(=O)n2ccc(C(=O)NCc3cnc(C)cn3)c2)c(Br)c1 [Compound 105, 1-(2-bromo-4-methoxy-phenyl)sulfonyl-N-[(5-methylpyrazin-2-yl)methyl]pyrrole-3-carboxamide]

ECdelta5 mV: 2800 nM | Threshold Shift: 17 mV
Structure (SMILES): Cc1ccc(S(=O)(=O)n2ccc(C(=O)NCc3nnc(C)s3)c2)cc1 [Compound 115, 1-(4-methylbenzene-1-sulfonyl)-N-[(5-methyl-1,3,4-thiadiazol-2-yl)methyl]-1H-pyrrole-3-carboxamide]

ECdelta5 mV: 4100 nM | Threshold Shift: 14 mV
Structure (SMILES): Cn1ccc(CNC(=O)c2ccn(S(=O)(=O)c3ccccc3)c2)n1 [Compound 82, 1-(benzenesulfonyl)-N-[(1-methyl-1H-pyrazol-3-yl)methyl]-1H-pyrrole-3-carboxamide]

ECdelta5 mV: 1600 nM | Threshold Shift: 15 mV
Structure (SMILES): Cc1ccc(S(=O)(=O)n2ccc(C(=O)NCc3cnc(C)s3)c2)cc1 [Compound 114, 1-(4-methylbenzene-1-sulfonyl)-N-[(2-methyl-1,3-thiazol-5-yl)methyl]-1H-pyrrole-3-carboxamide]

ECdelta5 mV: 720 nM | Threshold Shift: 24 mV
Structure (SMILES): Cc1cc(C)c(S(=O)(=O)n2ccc(C(=O)NCc3cnc(C)cn3)c2)c(C)c1 [Compound 103, N-[(5-methylpyrazin-2-yl)methyl]-1-(2,4,6-trimethylphenyl)sulfonyl-pyrrole-3-carboxamide]

ECdelta5 mV: 2500 nM | Threshold Shift: 20 mV
Structure (SMILES): COc1ccc(S(=O)(=O)n2ccc(C(=O)NCc3ncc(C)cn3)c2)c(Cl)c1 [Compound 118, 1-(2-chloro-4-methoxybenzene-1-sulfonyl)-N-[(5-methylpyrimidin-2-yl)methyl]-1H-pyrrole-3-carboxamide]

ECdelta5 mV: 1000 nM | Threshold Shift: 28 mV
Structure (SMILES): O=C(NCc1cnccn1)c1ccn(S(=O)(=O)c2ccc(Cl)cc2)c1 [Compound 81, 1-(4-chlorobenzene-1-sulfonyl)-N-[(pyrazin-2-yl)methyl]-1H-pyrrole-3-carboxamide]
